Laboratory results reported in US20060069132A1, “Azolecarboxamide herbicides” (priority 2004, published 2006).

Experiments:
[1] = tested on: small flower umbrella sedge; experiment: Test B flooded paddy test; type: in vivo, Cyperus difformis; conditions: 1000 g ai/ha, scale 0 to 100 (0 no effect, 100 complete control)
Method in brief: (§1)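 Read-out: visual comparison with controls, scored 0 to 100, where 100 means complete control and 0 no effect. Formulated chemicals were applied postemergence to plants 2–18 cm tall (1- to 4-leaf), or to flooded-paddy plants at the 2-leaf stage, then held 13 to 15 days under glass.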

[2] = tested on: ducksalad; experiment: Test C flooded paddy test; type: in vivo, Heteranthera limosa
[3] = tested on: large crabgrass; experiment: Test A pre-/postemergence herbicide test; type: in vivo, Digitaria sanguinalis
Method in brief: (§2)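 Sandy loam soil given preemergence directed spray; plants at 2 to 10 cm, one- to two-leaf stage, sprayed to runoff postemergence, compounds in non-phytotoxic solvent with surfactant. Injury rated visually versus untreated controls after about ten greenhouse days, 0 (no effect) to 100 (complete control); dash means not tested.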

[4] = tested on: giant foxtail; experiment: Test A pre-/postemergence herbicide test; type: in vivo, Setaria faberi
Method in brief: as §2

[5] = tested on: rice; experiment: Test B flooded paddy test; type: in vivo, Oryza sativa; conditions: 1000 g ai/ha, scale 0 to 100 (0 no effect, 100 complete control)
Method in brief: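 Visual ratings, 0 (no effect) to 100 (complete control), made versus controls after 13–15 d greenhouse. Paddy plants treated at 2-leaf stage; postemergence plants at 1- to 4-leaf stage, 2–18 cm tall.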

[6] = tested on: rice; experiment: Test C flooded paddy test; type: in vivo, Oryza sativa
Method in brief: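 Injury scored visually against controls on a 0 (no effect) to 100 (complete control) scale, 12 to 14 days after treatment in greenhouse. Flooded paddy plants treated at 2-leaf stage; postemergence plants at 1- to 4-leaf stage, 2 to 18 cm tall.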

[7] = tested on: velvetleaf; experiment: Test A pre-/postemergence herbicide test; type: in vivo, Abutilon theophrasti
Method in brief: as §2

[8] = tested on: barnyardgrass; experiment: Test A pre-/postemergence herbicide test; type: in vivo, Echinochloa crus-galli
Method in brief: as §2

[9] = tested on: morningglory; experiment: Test A pre-/postemergence herbicide test; type: in vivo, Ipomoea spp.
Method in brief: as §2

[10] = tested on: barnyardgrass; experiment: Test C flooded paddy test; type: in vivo, Echinochloa crus-galli
Method in brief: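 Ratings (0 = no effect, 100 = complete control) come from visual comparison with untreated plants after 12 to 14 days in the greenhouse. Treatment was postemergence at the 1- to 4-leaf stage (2–18 cm), or at the 2-leaf stage for the flooded paddy barnyardgrass.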

[11] = tested on: ducksalad; experiment: Test B flooded paddy test; type: in vivo, Heteranthera limosa; conditions: 1000 g ai/ha, scale 0 to 100 (0 no effect, 100 complete control)
Method in brief: as §1

[12] = tested on: smallflower umbrella sedge; experiment: Test C flooded paddy test; type: in vivo, Cyperus difformis
[13] = tested on: barnyardgrass; experiment: Test B flooded paddy test; type: in vivo, Echinochloa crus-galli; conditions: 1000 g ai/ha, scale 0 to 100 (0 no effect, 100 complete control)
Method in brief: as §1

[14] = tested on: redroot pigweed; experiment: Test A pre-/postemergence herbicide test; type: in vivo, Amaranthus retroflexus
Method in brief: as §2

[15] = tested on: pigweed; experiment: Test B pre-/postemergence herbicide test; type: in vivo, Amaranthus retroflexus; conditions: for Pigweed plant response rating: postemergence
Method in brief: (§3)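 Seeds were planted and treated preemergence with compounds formulated in a non-phytotoxic solvent mixture containing surfactant, while plants at the 1- to 4-leaf stage (2 to 18 cm) received postemergence sprays. Flooded paddy plants were grown to the 2-leaf stage. After 13 to 15 days in a greenhouse, injury was visually rated 0–100 against untreated controls.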

[16] = tested on: wheat; experiment: Test B postemergence herbicide test; type: in vivo, Triticum aestivum; set-up: key to Wheat plant response rating: 0 = no effect, 100 = complete control; conditions: postemergence
Method in brief: (§4)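 Each value is a visual 0–100 response rating taken against controls 13 to 15 days after treatment in the greenhouse. Plants received formulated chemical postemergence at the 1- to 4-leaf stage or, in flooded paddy, at the 2-leaf stage.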

[17] = tested on: lambsquarters; experiment: Test B pre-/postemergence herbicide test; type: in vivo, Chenopodium album; conditions: for Lambsquarters plant response rating: postemergence
Method in brief: as §3

[18] = tested on: large crabgrass; experiment: Test B pre-/postemergence herbicide test; type: in vivo, Digitaria sanguinalis; conditions: for Crabgrass, Large plant response rating: postemergence
Method in brief: as §3

[19] = tested on: blackgrass; experiment: Test B postemergence herbicide test; type: in vivo, Alopecurus myosuroides; conditions: postemergence
Method in brief: as §1

[20] = tested on: barnyardgrass; experiment: Test B pre-/postemergence herbicide test; type: in vivo, Echinochloa crus-galli; conditions: for Barnyardgrass plant response rating: postemergence
Method in brief: (§5)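 Pre: seeds sown, then sprayed. Post: 1–4-leaf plants (2–18 cm) sprayed at the same time. Paddy: flooded, treated at 2-leaf stage. Formulation: non-phytotoxic solvent with surfactant. Greenhouse 13–15 days; visual 0–100 score relative to controls.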

[21] = tested on: giant foxtail; experiment: Test B pre-/postemergence herbicide test; type: in vivo, Setaria faberi; conditions: for Foxtail, Giant plant response rating: postemergence
Method in brief: as §3

[22] = tested on: velvetleaf; experiment: Test B pre-/postemergence herbicide test; type: in vivo, Abutilon theophrasti; conditions: 100 is complete control
Method in brief: as §3

[23] = tested on: corn; experiment: Test B pre-/postemergence herbicide test; type: in vivo, Zea mays; conditions: for Corn plant response rating: postemergence
Method in brief: as §3

[24] = tested on: morningglory; experiment: Test B pre-/postemergence herbicide test; type: in vivo, Ipomoea coccinea; conditions: for Morningglory plant response rating: postemergence
Method in brief: as §5

[25] = tested on: Surinam grass; experiment: Test B pre-/postemergence herbicide test; type: in vivo, Urochloa decumbens; conditions: for Surinam Grass plant response rating: postemergence
Method in brief: as §3

[26] = tested on: cocklebur; experiment: Test B pre-/postemergence herbicide test; type: in vivo, Xanthium strumarium; conditions: for Cocklebur plant response rating: postemergence
Method in brief: as §5

[27] = tested on: wild oat; experiment: Test B postemergence herbicide test; type: in vivo, Avena fatua; conditions: postemergence
Method in brief: as §4

[28] = 125 g ai/ha, scale 0 to 100 (0 no effect, 100 complete control)
[29] = 250 g ai/ha, scale of 0 to 100, 0 is no effect, 100 is complete control
[30] = 500 g ai/ha, visual rating after 12 to 14 days, scale 0 to 100 (0 no effect, 100 complete control)
[31] = Postemergence, 500 g ai/ha, 0 to 100 scale, 0 no effect, 100 complete control
[32] = Postemergence, 2000 g ai/ha, 0 to 100 scale, 0 no effect, 100 complete control
[33] = Preemergence, 2000 g ai/ha, visual rating, 0 to 100 scale (0 no effect, 100 complete control)
[34] = preemergence, 500 g ai/ha, visual injury, 0 to 100 scale (0 no effect, 100 complete control)
[35] = 125 g ai/ha, 0 is no effect, 100 is complete control, preemergence
[36] = 125 g ai/ha, visual rating, scale 0 (no effect) to 100 (complete control)
[37] = 500 g ai/ha, visual rating, 0 = no effect, 100 = complete control, preemergence
[38] = 500 g ai/ha, scale 0 to 100, 0 is no effect, 100 is complete control

## CCOC(=O)c1cncc(NC(=O)c2cc(C(C)(C)C)nn2CC)c1 [Compound 255]
[1]
  Sedge, Umbrella plant response rating: 80
[2]; 62 g ai/ha, scale 0 to 100
  Ducksalad plant response rating: 0
[2]; [28]
  Ducksalad plant response rating: 10
[2]; [29]
  Ducksalad plant response rating: 35
[2]; [30]
  Plant response rating, Ducksalad: 40
[3]; [31]
  Crabgrass, Large plant response rating: 20
[3]; [32]
  Plant response rating, Crabgrass, Large: 40
[3]; [33]
  Crabgrass, Large plant response rating: 55
[3]; [34]
  Crabgrass, Large plant response rating: 35
[4]; [31]
  Foxtail, Giant plant response rating: 30
[4]; [32]
  Plant response rating, Foxtail, Giant: 55
[4]; [33]
  Foxtail, Giant plant response rating: 60
[4]; [34]
  Foxtail, Giant plant response rating: 45
[5]
  Rice plant response rating: 70
[6]; 62 g ai/ha, scale 0 to 100
  Rice plant response rating: 0
[6]; [28]
  Rice plant response rating: 0
[6]; [29]
  Rice plant response rating: 45
[6]; [30]
  Plant response rating, Rice: 50
[7]; [31]
  Velvetleaf plant response rating: 35
[7]; [32]
  Plant response rating, Velvetleaf: 50
[7]; [33]
  Velvetleaf plant response rating: 50
[7]; [34]
  Velvetleaf plant response rating: 30
[8]; [31]
  Barnyardgrass plant response rating: 40
[8]; [32]
  Plant response rating, Barnyardgrass: 70
[8]; [33]
  Barnyardgrass plant response rating: 75
[8]; [34]
  Barnyardgrass plant response rating: 55
[9]; [31]
  Morningglory plant response rating: 10
[9]; [32]
  Plant response rating, Morningglory: 25
[9]; [33]
  Morningglory plant response rating: 70
[9]; [34]
  Morningglory plant response rating: 30
[10]; 62 g ai/ha, scale 0 to 100 (0 no effect, 100 complete control)
  Barnyardgrass plant response rating: 0
[10]; [28]
  Barnyardgrass plant response rating: 10
[10]; [29]
  Barnyardgrass plant response rating: 25
[10]; [30]
  Plant response rating, Barnyardgrass: 35
[11]
  Ducksalad plant response rating: 80
[12]; 62 g ai/ha, scale 0 to 100
  Sedge, Umbrella plant response rating: 0
[12]; [28]
  Sedge, Umbrella plant response rating: 20
[12]; [29]
  Sedge, Umbrella plant response rating: 35
[12]; [30]
  Plant response rating, Sedge, Umbrella: 45
[13]
  Barnyardgrass plant response rating: 70
[14]; [31]
  Pigweed plant response rating: 70
[14]; [32]
  Plant response rating, Pigweed: 100
[14]; [33]
  Pigweed plant response rating: 100
[14]; [34]
  Pigweed plant response rating: 90

## CCc1nn(C2CCCC2)nc1C(=O)Nc1cccc(C(=O)N2CC=CC2)c1 [Compound 354]
[15]; [35]
  Plant response rating (0 to 100 scale), Pigweed: 0
[15]; [36]
  Pigweed plant response rating: 40
[15]; [37]
  Plant response rating, Pigweed: 90
[15]; [38]
  Pigweed plant response rating: 50
[16]; [36]
  Wheat plant response rating: 0
[16]; [38]
  Wheat plant response rating: 20
[1]
  Sedge, Umbrella plant response rating: 50
[17]; [36]
  Lambsquarters plant response rating: 10
[17]; [37]
  Plant response rating, Lambsquarters: 100
[17]; [38]
  Lambsquarters plant response rating: 50
[18]; [35]
  Plant response rating (0 to 100 scale), Crabgrass, Large: 20
[18]; [36]
  Crabgrass, Large plant response rating: 0
[18]; [37]
  Plant response rating, Crabgrass, Large: 80
[18]; [38]
  Crabgrass, Large plant response rating: 10
[3]; [31]
  Crabgrass, Large plant response rating: 10
[3]; [32]
  Plant response rating, Crabgrass, Large: 20
[3]; [33]
  Crabgrass, Large plant response rating: 20
[3]; [34]
  Crabgrass, Large plant response rating: 10
[4]; [31]
  Foxtail, Giant plant response rating: 10
[4]; [32]
  Plant response rating, Foxtail, Giant: 50
[4]; [33]
  Foxtail, Giant plant response rating: 80
[4]; [34]
  Foxtail, Giant plant response rating: 15
[5]
  Rice plant response rating: 50
[19]; [36]
  Blackgrass plant response rating: 10
[19]; [38]
  Blackgrass plant response rating: 20
[20]; [35]
  Plant response rating (0 to 100 scale), Barnyardgrass: 0
[20]; [36]
  Barnyardgrass plant response rating: 0
[20]; [37]
  Plant response rating, Barnyardgrass: 60
[20]; [38]
  Barnyardgrass plant response rating: 0
[7]; [31]
  Velvetleaf plant response rating: 50
[7]; [32]
  Plant response rating, Velvetleaf: 70
[7]; [33]
  Velvetleaf plant response rating: 45
[7]; [34]
  Velvetleaf plant response rating: 5
[21]; [35]
  Plant response rating (0 to 100 scale), Foxtail, Giant: 10
[21]; [36]
  Foxtail, Giant plant response rating: 10
[21]; [37]
  Plant response rating, Foxtail, Giant: 70
[21]; [38]
  Foxtail, Giant plant response rating: 20
[8]; [31]
  Barnyardgrass plant response rating: 20
[8]; [32]
  Plant response rating, Barnyardgrass: 70
[8]; [33]
  Barnyardgrass plant response rating: 55
[8]; [34]
  Barnyardgrass plant response rating: 0
[9]; [31]
  Morningglory plant response rating: 20
[9]; [32]
  Plant response rating, Morningglory: 85
[9]; [33]
  Morningglory plant response rating: 20
[9]; [34]
  Morningglory plant response rating: 15
[11]
  Ducksalad plant response rating: 50
[22]; 125 g ai/ha, 0 is no effect, preemergence
  Plant response rating (0 to 100 scale), Velvetleaf: 0
[22]; postemergence, 500 g ai/ha, scale 0 to 100, 0 is no effect
  Velvetleaf plant response rating: 10
[23]; [35]
  Plant response rating (0 to 100 scale), Corn: 20
[23]; [36]
  Corn plant response rating: 0
[23]; [37]
  Plant response rating, Corn: 20
[23]; [38]
  Corn plant response rating: 0
[24]; [35]
  Plant response rating (0 to 100 scale), Morningglory: 0
[24]; [36]
  Morningglory plant response rating: 30
[24]; [37]
  Plant response rating, Morningglory: 0
[24]; [38]
  Morningglory plant response rating: 60
[13]
  Barnyardgrass plant response rating: 40
[25]; [35]
  Plant response rating (0 to 100 scale), Surinam Grass: 0
[25]; [36]
  Surinam Grass plant response rating: 0
[25]; [37]
  Plant response rating, Surinam Grass: 20
[25]; [38]
  Surinam Grass plant response rating: 20
[14]; [31]
  Pigweed plant response rating: 70
[14]; [32]
  Plant response rating, Pigweed: 80
[14]; [33]
  Pigweed plant response rating: 70
[14]; [34]
  Pigweed plant response rating: 60
[26]; [35]
  Plant response rating (0 to 100 scale), Cocklebur: 0
[26]; [36]
  Cocklebur plant response rating: 10
[26]; [37]
  Plant response rating, Cocklebur: 0
[26]; [38]
  Cocklebur plant response rating: 20
[27]; [36]
  Oat, Wild plant response rating: 0
[27]; [38]
  Oat, Wild plant response rating: 20
